Measurements from ChEMBL document CHEMBL1201862, “PubChem BioAssay data set” (2004).
Calls of active or inactive are those of the source.

Legend:
[1] = target: T1, Apoptotic protease-activating factor 1 (Homo sapiens, UniProt O14727); assay type: functional
T1 sequence (O14727 whole entry): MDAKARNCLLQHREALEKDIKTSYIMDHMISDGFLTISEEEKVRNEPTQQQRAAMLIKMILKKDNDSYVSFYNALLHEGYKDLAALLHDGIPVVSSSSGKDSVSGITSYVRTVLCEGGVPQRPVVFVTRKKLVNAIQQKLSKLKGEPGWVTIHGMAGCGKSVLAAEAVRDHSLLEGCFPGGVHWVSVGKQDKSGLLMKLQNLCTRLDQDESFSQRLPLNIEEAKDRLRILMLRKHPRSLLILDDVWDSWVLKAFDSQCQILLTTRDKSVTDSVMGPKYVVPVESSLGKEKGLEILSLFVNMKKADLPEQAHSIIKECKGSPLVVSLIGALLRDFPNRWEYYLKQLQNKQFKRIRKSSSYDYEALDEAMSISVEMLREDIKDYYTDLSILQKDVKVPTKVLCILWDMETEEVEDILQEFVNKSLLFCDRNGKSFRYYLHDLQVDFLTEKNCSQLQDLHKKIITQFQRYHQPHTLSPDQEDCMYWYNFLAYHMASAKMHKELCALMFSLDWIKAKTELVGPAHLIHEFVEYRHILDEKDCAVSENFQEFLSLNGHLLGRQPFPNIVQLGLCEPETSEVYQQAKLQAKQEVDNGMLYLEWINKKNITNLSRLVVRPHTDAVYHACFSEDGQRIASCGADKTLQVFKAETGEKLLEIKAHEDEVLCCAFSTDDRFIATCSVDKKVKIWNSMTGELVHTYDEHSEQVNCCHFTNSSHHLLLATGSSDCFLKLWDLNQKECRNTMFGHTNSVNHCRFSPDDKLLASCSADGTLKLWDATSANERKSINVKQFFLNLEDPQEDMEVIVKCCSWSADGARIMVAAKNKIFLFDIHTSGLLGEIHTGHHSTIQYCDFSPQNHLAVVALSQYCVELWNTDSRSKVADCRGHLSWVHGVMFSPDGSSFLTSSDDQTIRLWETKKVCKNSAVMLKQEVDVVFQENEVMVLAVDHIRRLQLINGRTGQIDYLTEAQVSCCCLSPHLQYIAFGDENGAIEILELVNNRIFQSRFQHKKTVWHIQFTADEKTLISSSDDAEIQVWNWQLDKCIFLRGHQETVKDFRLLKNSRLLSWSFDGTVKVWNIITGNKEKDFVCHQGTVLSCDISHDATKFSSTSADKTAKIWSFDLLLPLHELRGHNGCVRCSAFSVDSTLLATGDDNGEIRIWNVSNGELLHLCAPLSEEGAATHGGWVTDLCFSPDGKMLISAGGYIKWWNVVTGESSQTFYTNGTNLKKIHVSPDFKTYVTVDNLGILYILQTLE

[2] = target: T2, Tyrosyl-DNA phosphodiesterase 2 (Homo sapiens, UniProt O95551); assay: potency against TDP2 phosphodiesterase activity – biochemical, epi absorbance, IC50, dose response (AID 743297)
T2 sequence (O95551 whole entry): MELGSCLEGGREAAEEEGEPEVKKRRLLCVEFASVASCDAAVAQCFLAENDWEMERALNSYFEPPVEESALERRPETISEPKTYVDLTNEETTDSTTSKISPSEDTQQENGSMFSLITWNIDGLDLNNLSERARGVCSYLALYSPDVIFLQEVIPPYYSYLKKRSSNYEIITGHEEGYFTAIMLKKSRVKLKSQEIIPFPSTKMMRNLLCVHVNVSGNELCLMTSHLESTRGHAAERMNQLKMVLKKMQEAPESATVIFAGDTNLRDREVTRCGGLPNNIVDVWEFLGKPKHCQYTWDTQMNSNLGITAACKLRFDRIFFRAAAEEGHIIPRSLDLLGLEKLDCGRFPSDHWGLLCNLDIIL

[3] = target: T3, Dual specificity protein phosphatase 6 (Rattus norvegicus, UniProt Q64346); assay: inhibition of rat DUSP6 enzyme activity – biochemical, in vitro, primary screen (AID 425)
T3 sequence (Q64346 whole entry): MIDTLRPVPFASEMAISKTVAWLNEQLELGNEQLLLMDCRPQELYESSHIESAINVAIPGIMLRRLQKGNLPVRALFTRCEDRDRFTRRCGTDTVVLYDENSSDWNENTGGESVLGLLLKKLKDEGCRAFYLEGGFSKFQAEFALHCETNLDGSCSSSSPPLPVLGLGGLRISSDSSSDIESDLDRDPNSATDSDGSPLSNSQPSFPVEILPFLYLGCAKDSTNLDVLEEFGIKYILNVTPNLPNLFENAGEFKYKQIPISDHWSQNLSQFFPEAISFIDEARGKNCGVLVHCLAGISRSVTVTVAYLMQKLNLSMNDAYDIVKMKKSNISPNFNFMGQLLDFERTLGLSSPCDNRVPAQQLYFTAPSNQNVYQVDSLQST

[4] = target: T4, Serine/threonine-protein phosphatase (Homo sapiens, UniProt Q9BPW0); assay: inhibition of protein phosphatase 5 activity – biochemical, fluorescence, dose response (AID 2395)
T4 sequence (Q9BPW0 whole entry): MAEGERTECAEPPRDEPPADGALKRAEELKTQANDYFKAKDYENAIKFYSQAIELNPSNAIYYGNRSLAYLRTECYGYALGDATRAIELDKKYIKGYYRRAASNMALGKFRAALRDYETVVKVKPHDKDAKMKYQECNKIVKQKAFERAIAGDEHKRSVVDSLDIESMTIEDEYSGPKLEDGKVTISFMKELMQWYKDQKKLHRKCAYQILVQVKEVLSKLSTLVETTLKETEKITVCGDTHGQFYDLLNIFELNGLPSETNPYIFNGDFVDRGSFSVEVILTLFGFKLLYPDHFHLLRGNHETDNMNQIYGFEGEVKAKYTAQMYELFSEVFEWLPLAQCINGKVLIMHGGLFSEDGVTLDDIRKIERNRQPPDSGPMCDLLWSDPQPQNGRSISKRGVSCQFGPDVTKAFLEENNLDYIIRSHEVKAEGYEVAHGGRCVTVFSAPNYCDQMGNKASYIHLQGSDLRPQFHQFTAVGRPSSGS

[5] = target: Dual specificity protein phosphatase 3 (Homo sapiens, UniProt P51452); assay: SAR VHR1 Fluorescent Assay for In Vitro dose response studies Set 2. [Related pubchem assays (depositor defined):AID1654, AID1661, AID1878]; assay type: functional
[6] = target: T5, Tyrosine-protein phosphatase non-receptor type 7 (Homo sapiens, UniProt P35236); assay type: functional
T5 sequence (P35236 whole entry): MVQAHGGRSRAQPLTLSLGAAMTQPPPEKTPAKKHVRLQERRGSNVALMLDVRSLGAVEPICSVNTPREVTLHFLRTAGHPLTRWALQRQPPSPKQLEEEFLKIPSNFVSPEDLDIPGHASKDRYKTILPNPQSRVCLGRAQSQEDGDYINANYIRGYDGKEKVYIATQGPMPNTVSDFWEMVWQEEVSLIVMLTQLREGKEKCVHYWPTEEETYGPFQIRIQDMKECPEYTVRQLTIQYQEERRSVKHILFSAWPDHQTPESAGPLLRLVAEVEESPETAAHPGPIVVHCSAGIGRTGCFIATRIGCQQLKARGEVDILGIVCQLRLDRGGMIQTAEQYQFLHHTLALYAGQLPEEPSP

Sequence of Dual specificity protein phosphatase 3 (P51452 whole entry): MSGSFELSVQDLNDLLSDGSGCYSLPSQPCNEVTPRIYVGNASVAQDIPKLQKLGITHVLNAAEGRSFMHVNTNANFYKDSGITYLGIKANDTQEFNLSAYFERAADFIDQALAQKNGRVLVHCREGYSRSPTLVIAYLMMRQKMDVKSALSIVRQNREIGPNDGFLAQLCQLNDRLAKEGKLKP

| Compound | IC50 [1] | IC50 [2] | IC50 [3] | IC50 [4] | IC50 [5] | IC50 [6] |
| --- | --- | --- | --- | --- | --- | --- |
| C=CCn1c(NC(=O)c2ccccc2Cl)c(C#N)c2nc3ccccc3nc21 | 13.7 µM (active) | > 128 µM (inactive) | > 100 µM (not active) | > 7.45 µM (active) | – | – |
| CCOC(=O)c1ccc(Nc2cc3ccccc3c(O)n2)cc1 | 8.78 µM (active) | – | – | – | – | – |
| CCOC(=O)c1sc2nc3c(SCC(=O)O)cc(C(=O)c4ccccc4O)cn3c(=O)c2c1C | – | – | 103 µM (not active) | – | 218 nM (active) | < 1.24 µM (active) |
